Assay results: ChEMBL document CHEMBL4834464, “Fragment-based Scaffold Hopping: Identification of Potent, Selective, and Highly Soluble Bromo and Extra Terminal Domain (BET) Second Bromodomain (BD2) Inhibitors” (J Med Chem, 2021)
In brackets after ≈: the same amount, converted by molar mass.

Assays:
[1] = Intrinsic clearance in human hepatocytes measured per gram of tissue incubated for 120 mins by LC-MS/MS method; format: ADME, cell-based, Hepatocyte; details: 2 h
[2] = Blood clearance in male Wistar Han rat measured up to 7 hrs by LC-MS/MS analysis; format: ADME
[3] = Solubility of the compound in FaSSIF at pH 6.5 incubated for 16 hrs by HPLC gradient analysis; format: physicochemical; details: for solubility at 16 h: FaSSIF, pH 6.5; for solubility: simulated gi fluid, pH 6.5, 16 h
[4] = Oral bioavailability in male Wistar Han rat at 3 mg/kg measured up to 7 hrs by LC-MS/MS analysis; format: ADME, organism-based; details: in vivo
[5] = Blood clearance in male Wistar Han rat at 0.5 mg/kg, iv and 3 mg/kg, po measured up to 7 hrs by LC-MS/MS analysis; format: ADME, organism-based
[6] = Half life in Beagle dog at 0.5 mg/kg, iv and 1 mg/kg, po measured up to 7 hrs by LC-MS/MS analysis; format: ADME, organism-based, Canis lupus familiaris; details: in vivo
[7] = Intrinsic clearance in dog hepatocytes measured per gram of tissue by LC-MS/MS method; format: ADME, cell-based, Canis lupus familiaris, Hepatocyte
[8] = Volume of distribution at steady state in male Wistar Han rat at 0.5 mg/kg, iv and 3 mg/kg, po measured up to 7 hrs by LC-MS/MS analysis; format: ADME, organism-based; details: in vivo, read-out: Vdss
[9] = Oral bioavailability in Beagle dog at 1 mg/kg measured up to 7 hrs by LC-MS/MS analysis; format: ADME, organism-based, Canis lupus familiaris; details: in vivo
[10] = Solubility of the compound by CLND assay; format: physicochemical
[11] = Half life in male Wistar Han rat at 0.5 mg/kg, iv and 3 mg/kg, po measured up to 7 hrs by LC-MS/MS analysis; format: ADME, organism-based; details: in vivo
[12] = Blood clearance in Beagle dog at 0.5 mg/kg, iv and 1 mg/kg, po measured up to 7 hrs by LC-MS/MS analysis; format: ADME, organism-based, Canis lupus familiaris
[13] = Distribution coefficient, logD of the compound by chromatography; format: physicochemical; details: octanol/water
[14] = Apparent permeability across apical to basolateral side in MDCK cells; format: ADME, cell-based, Canis lupus familiaris; details: dog
[15] = Intrinsic clearance in Wistar han rat hepatocytes measured per gram of tissue incubated for 60 mins by LC-MS/MS method; format: ADME, cell-based, Hepatocyte; details: 1 h
[16] = Permeability of compound by AMP assay; format: ADME; details: not told; read-out: permeability
[17] = Volume of distribution at steady state in Beagle dog at 0.5 mg/kg, iv and 1 mg/kg, po measured up to 7 hrs by LC-MS/MS analysis; format: ADME, organism-based, Canis lupus familiaris; details: in vivo, read-out: Vdss
[18] = Solubility of the compound in FaSSIF at pH 6.5 using crystalline form of sample incubated for 16 hrs by HPLC gradient analysis; format: physicochemical
[19] = Half life in male Wistar Han rat at 1 mg/kg, iv and 3 mg/kg, po measured up to 7 hrs by LC-MS/MS analysis; format: ADME, organism-based; details: in vivo
[20] = Blood clearance in male Wistar Han rat at 1 mg/kg, iv and 3 mg/kg, po measured up to 7 hrs by LC-MS/MS analysis; format: ADME, organism-based
[21] = Volume of distribution at steady state in male Wistar Han rat at 1 mg/kg, iv and 3 mg/kg, po measured up to 7 hrs by LC-MS/MS analysis; format: ADME, organism-based; details: in vivo, read-out: Vdss
[22] = Oral bioavailability in Beagle dog at 0.7 mg/kg measured up to 7 hrs by LC-MS/MS analysis; format: ADME, organism-based, Canis lupus familiaris; details: in vivo
[23] = Half life in Beagle dog at 0.5 mg/kg, iv and 0.7 mg/kg, po measured up to 7 hrs by LC-MS/MS analysis; format: ADME, organism-based, Canis lupus familiaris; details: in vivo
[24] = Kinetic solubility of compound […] using the charged aerosol detector (CAD) analysis; format: physicochemical; details: read-out: Kinetic_solubility
[25] = Volume of distribution at steady state in Beagle dog at 0.5 mg/kg, iv and 0.7 mg/kg, po measured up to 7 hrs by LC-MS/MS analysis; format: ADME, organism-based, Canis lupus familiaris; details: in vivo, read-out: Vdss
[26] = Blood clearance in Beagle dog at 0.5 mg/kg, iv and 0.7 mg/kg, po measured up to 7 hrs by LC-MS/MS analysis; format: ADME, organism-based, Canis lupus familiaris
[27] = Oral bioavailability in male Wistar Han rat measured up to 7 hrs by LC-MS/MS analysis; format: ADME, organism-based; details: in vivo

CNC(=O)c1cc(C(=O)NC2CC2)cn(Cc2cccc3[nH]ccc23)c1=O
CLint [1]: 2.9 mL/min/g | clearance [2]: 128 mL/min/kg | solubility at 16 h [3]: 17 µg/mL (≈ 46.7 µM)

CNC(=O)c1cc(C(=O)N[C@H]2CC[C@H](O)CC2)n([C@@H](C)c2ccccc2)n1
bioavailability [4]: 58% | clearance [5]: 13 mL/min/kg | CLint [1]: < 0.5 mL/min/g | half-life [6]: 9 h | CLint [7]: < 0.7 mL/min/g | Vd [8]: 1.1 L/kg | bioavailability [9]: 30% | solubility kinetic [10]: ≥ 180 µg/mL | half-life [11]: 1.3 h | clearance [12]: 1 mL/min/kg | chromatographic logD [13]: 2.9 | Papp A→B [14]: 4.1 ×10⁻⁶ cm/s | CLint [15]: 0.9 mL/min/g | solubility [3]: 366 µg/mL (≈ 988 µM) | Papp [16]: 8 ×10⁻⁶ cm/s | Vd [17]: 0.9 L/kg

CNC(=O)c1cc(C(=O)N[C@H]2[C@@H]3C[C@@H](O)C[C@@H]32)c([C@@H](C)c2ccccc2)o1
solubility thermodynamic at 16 h [18]: 736 µg/mL (≈ 2000 µM) | bioavailability [4]: 67% | CLint [1]: < 0.45 mL/min/g | half-life [6]: 2.5 h | half-life [19]: 1.2 h | CLint [7]: < 0.65 mL/min/g | bioavailability [9]: 58% | solubility kinetic [10]: ≥ 172 µg/mL | clearance [12]: 5 mL/min/kg | chromatographic logD [13]: 2.8 | CLint [15]: < 0.8 mL/min/g | clearance [20]: 41 mL/min/kg | Vd [21]: 2.3 L/kg | Papp [16]: 4.5 ×10⁻⁶ cm/s | Vd [17]: 1.1 L/kg

CNC(=O)c1cc(C(=O)N[C@H]2CC[C@H](O)CC2)c([C@@H](C)c2ccccc2)o1
bioavailability [4]: 72% | CLint [1]: < 0.5 mL/min/g | half-life [6]: 5.2 h | half-life [19]: 1.3 h | CLint [7]: < 0.7 mL/min/g | bioavailability [9]: 84% | solubility kinetic [10]: ≥ 184 µg/mL | clearance [12]: 1.9 mL/min/kg | chromatographic logD [13]: 2.8 | Papp A→B [14]: 4.9 ×10⁻⁶ cm/s | CLint [15]: 0.8 mL/min/g | solubility [3]: 827 µg/mL (≈ 2230 µM) | clearance [20]: 30 mL/min/kg | Vd [21]: 2.1 L/kg | Papp [16]: 4.2 ×10⁻⁶ cm/s | Vd [17]: 0.8 L/kg

CNC(=O)c1cc(C(=O)N[C@H]2[C@@H]3C[C@@H](O)C[C@@H]32)n([C@@H](C)c2cccc(Cl)c2)n1
bioavailability [4]: 57% | CLint [1]: < 0.45 mL/min/g | bioavailability [22]: 58% | half-life [23]: 5 h | half-life [19]: 2.9 h | CLint [7]: < 0.65 mL/min/g | solubility kinetic [24]: 175 µg/mL (≈ 434 µM) | chromatographic logD [13]: 3.4 | CLint [15]: 1 mL/min/g | clearance [20]: 21 mL/min/kg | Vd [21]: 2.6 L/kg | Papp [16]: 19.7 ×10⁻⁶ cm/s | Vd [25]: 0.8 L/kg | clearance [26]: 2 mL/min/kg

CC(=O)Nc1c(F)cc(C(=O)N[C@H]2CC[C@H](O)CC2)cc1O[C@@H](C)c1ccccc1 [GSK046]
CLint [1]: 2.8 mL/min/g | solubility kinetic [24]: ≥ 159 µg/mL | clearance [2]: 82 mL/min/kg | chromatographic logD [13]: 2.8 | bioavailability [27]: 31%

CNC(=O)c1cc(C(=O)NC2CC2)cn(Cc2ccccc2)c1=O [GSK620]
CLint [1]: 3.1 mL/min/g | clearance [2]: 75 mL/min/kg | solubility at 16 h [3]: 13 µg/mL (≈ 40 µM)

CNC(=O)c1cc(C(=O)N[C@H]2[C@@H]3COC[C@@H]32)cc2c1O[C@H](CF)[C@H]2c1ccccc1 [GSK973]
CLint [1]: 3.6 mL/min/g | clearance [2]: 180 mL/min/kg | chromatographic logD [13]: 3.6 | bioavailability [27]: 48% | Papp [16]: 16.5 ×10⁻⁶ cm/s
